In brackets after ≈: the same amount, converted by molar mass.
Experiments:
[1] = Determination of solubility in hydrochloric acid solution of pH 4.0 (saturated solution, HPLC); assay type: physicochemical; details: ultrasonic 1 hour; for solubility at 1 h: aqueous buffer, thermodynamic from solid, read-out: Solubilities in hydrochloric acid of pH 4
Procedure: 1.6 mg of compound 4 was weighed and dissolved in a mixed solution of 1 ml of methanol and 0.5 ml of DMSO to obtain a control solution. 7.66 mg of compound 4 was dissolved in hydrochloric acid solution of pH 4.0 and shaken in an ultrasonic device for 1 hour to prepare a saturated solution. The solubility of compound 4 in hydrochloric acid solution of pH 4.0 was determined by HPLC.
The solubilities of compound 5 to compound 17 in hydrochloric acid solution were determined with the process for determining the solubility in Example 52.

[2] = tested on: human tumour cells; details: nude mice transplanted human tumour cells; cited from earlier work
[3] = tested on: normal human endothelial cells; details: in vitro; cited from earlier work
[4] = Solubilization of compound 1 with surfactants, solution placed for observation; assay type: physicochemical; details: 12 hours
Procedure: 2.5 mg of compound 1 was weighed and dissolved with 0.5 ml of 0.1N hydrochloric acid solution. 5% (V/V) of polysorbate 80 was added in the resultant solution. The pH of the solution was adjusted with 0.1N of sodium hydroxide to such an extent that precipitates were just to generate.
2.5 mg of compound 1 was weighed and dissolved with 0.5 ml of 0.1N hydrochloric acid solution. An amount of 0.1 N sodium hydroxide solution which is equal to that in Example 25 was added. Precipitates produced.
2 mg of compound 1 was weighed and dissolved with 0.5 ml of 0.1N hydrochloric acid solution. 5% (V/V) of polyethylene glycol-12-hydroxy stearate was added in the resultant solution. The pH of the solution was adjusted with 0.1N of sodium hydroxide to such an extent that precipitates were just to generate.
2 mg of compound 1 was weighed and dissolved with 0.5 ml of 0.1N hydrochloric acid solution. The pH was adjusted with an amount of 0.1 N sodium hydroxide solution which is equal to that in Example 27. Precipitates produced.
2 mg of compound 1 was weighed and dissolved with 0.5 ml of 0.1N hydrochloric acid solution. 5% (V/V) of polyoxyethylene castor oil was added in the resultant solution. The pH of the solution was adjusted with 0.1N of sodium hydroxide to such an extent that precipitates were just to generate.
2 mg of compound 1 was weighed and dissolved with 0.5 ml of 0.1N hydrochloric acid solution. The pH was adjusted with an amount of 0.1 N sodium hydroxide solution which is equal to that in Example 29. Precipitates produced.

Compound	Solubilities in hydrochloric acid of pH 4 [1] [mg/ml]	solubility at 1 h [1] [µg/mL]	other results
N#CNC(=Nc1ccncc1)NCCCCCCOc1ccccc1OC(F)(F)F [compound 10]	0.01965	–	–
N#CN=C(NCCCCCCCCCCCCNC(=NC#N)Nc1ccncc1)Nc1ccncc1 [compound 4, 1,12-bis(N′-cyano-N″-4-pyridylguanidine)dodecane]	0.00052	–	–
N#CNC(=Nc1ccncc1)NCCCCCCOc1c(Cl)cccc1Cl [compound 9, N-cyano-N′-(6-((2,6-dichlorophenyl)oxo)hexyl)-N″-(4-pyridyl)guanidine]	0.05331	–	–
N#CNC(=Nc1ccncc1)NCCCCCCOc1ccc(F)cc1Cl [compound 7]	0.09993	–	–
N#CNC(=Nc1ccncc1)NCCCCCCOc1ccc(Cl)cc1 [compound 1, N-cyano-N′-(6-(p-chlorophenoxy)hexyl)-N″-(4-pyridyl)guanidine]	–	–	antitumour activity [2]: potent antitumour activity; antiproliferative activity to normal human endothelial cells [3]: significantly lower antiproliferative activity; appearance of solution on standing ([4]; Example 25: 0.1N HCl, 5% (V/V) polysorbate 80, pH adjusted with 0.1N NaOH): solution kept clear for 12 hours; appearance of solution on standing ([4]; Example 26: control without polysorbate 80, same amount of NaOH): precipitates increased during 12 hours; appearance of solution on standing ([4]; Example 27: 0.1N HCl, 5% (V/V) polyethylene glycol-12-hydroxy stearate, pH adjusted with 0.1N NaOH): solution kept clear for 12 hours; appearance of solution on standing ([4]; Example 28: control without polyethylene glycol-12-hydroxy stearate, same amount of NaOH): precipitates increased during 12 hours; appearance of solution on standing ([4]; Example 29: 0.1N HCl, 5% (V/V) polyoxyethylene castor oil, pH adjusted with 0.1N NaOH): solution kept clear for 12 hours; appearance of solution on standing ([4]; Example 30: control without polyoxyethylene castor oil, same amount of NaOH): precipitates increased during 12 hours
N#CNC(=Nc1ccncc1)NCCCCCOc1ccc(Cl)cc1Cl [compound 15, N-cyano-N′-(5-((2,4-dichlorophenyl)oxo)pentyl)-N″-(4-pyridyl)guanidine]	0.000829	–	–
N#CNC(=Nc1ccncc1)NCCCCCCOc1c(Cl)cc(Cl)cc1Cl [compound 17, N-cyano-N′-(6-((2,4,6-trichlorophenyl)oxo)hexyl)-N″-(4-pyridyl)guanidine]	0.00669	–	–
COc1ccccc1OCCCCCCCCNC(=Nc1ccncc1)NC#N [compound 14, N-cyano-N′-(8-((o-methoxyphenyl)oxo)octyl)-N″-(4-pyridyl)guanidine]	0.1481	–	–
N#CNC(=Nc1ccncc1)NCCCCCCOc1ccccc1Br [compound 8, N-cyano-N′-(6-(o-bromophenoxy)hexyl)-N″-(4-pyridyl)guanidine]	–	205 (≈ 494 µM)	–
N#CNC(=Nc1ccncc1)NCCCCCOc1ccccc1Cl [compound 11, N-cyano-N′-(5-(o-chlorophenoxy)pentyl)-N″-(4-pyridyl)guanidine]	–	2.85 (≈ 7.96 µM)	–
N#CNC(=Nc1ccncc1)NCCCCCOc1c(Cl)cc(Cl)cc1Cl [compound 16]	0.01753	–	–
N#CNC(=Nc1ccncc1)NCCCCCOc1ccc(Cl)cc1 [compound 13, N-cyano-N′-(5-(p-chlorophenoxy)pentyl)-N″-(4-pyridyl)guanidine]	–	29.5 (≈ 82.5 µM)	–
CC(C)(C)OC(=O)NCCCCCCCCCCCCNC(=Nc1ccncc1)NC#N [compound 5, N-(12-(tert-butoxycarbonylamino)dodecyl)-N′-cyano-N″-(4-pyridyl)guanidine]	–	0.92 (≈ 2.07 µM)	–
N#CNC(=Nc1ccncc1)NCCCCCCCOc1ccccc1Cl [compound 12, N-cyano-N′-(7-(o-chlorophenoxy)heptyl)-N″-(4-pyridyl)guanidine]	–	3.72 (≈ 9.64 µM)	–
N#CNC(=Nc1ccncc1)NCCCCCCOC(=O)c1ccc(Cl)cc1 [compound 6, N-(6-((4-chlorobenzoic acid)ester)hexyl)-N′-cyano-N″-(4-pyridyl)guanidine]	0.00225	–	–
